Laboratory results taken from patent publication US10294202B2, “Pyrrolidinones as herbicides” (FMC Corporation, priority 2013, dated 2019).

How the values were obtained:
[1] = system: barnyardgrass; assay: Test A pre-/postemergence herbicide test; type: in vivo, Echinochloa crus-galli
Summary of the method: (§1)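 Visual 0–100 ratings (100 = complete control) made about 10 days after treatment, greenhouse-held plants compared with untreated controls. Treatments: postemergence sprays on one- to two-leaf plants (2–10 cm tall) and preemergence directed soil sprays after planting in loam–sand, chemicals formulated in non-phytotoxic solvent containing surfactant.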

[2] = system: kochia; assay: Test A pre-/postemergence herbicide test; type: in vivo, Kochia scoparia
Summary of the method: as §1

[3] = system: ragweed; assay: Test A pre-/postemergence herbicide test; type: in vivo, Ambrosia elatior
Summary of the method: as §1

[4] = system: ryegrass, Italian; assay: Test A pre-/postemergence herbicide test; type: in vivo, Lolium multiflorum
Summary of the method: as §1

[5] = system: giant foxtail; assay: Test A pre-/postemergence herbicide test; type: in vivo, Setaria faberii
Summary of the method: as §1

[6] = system: pigweed; assay: Test A pre-/postemergence herbicide test; type: in vivo, Amaranthus retroflexus
Summary of the method: as §1

[7] = system: wheat; assay: Test A pre-/postemergence herbicide test; type: in vivo, Triticum aestivum; conditions: Postemergence
Summary of the method: as §1

[8] = system: corn; assay: Test A pre-/postemergence herbicide test; type: in vivo, Zea mays; conditions: Postemergence
Summary of the method: as §1

[9] = system: blackgrass; assay: Test A postemergence herbicide test; type: in vivo, Alopecurus myosuroides
Summary of the method: (§2)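 Blackgrass and galium grown in pots of loam soil–sand blend, treated postemergence at 2–10 cm height, one- to two-leaf stage. Plants kept in greenhouse ~10 days, then visually rated for injury against untreated controls on a 0–100 scale (0 no effect, 100 complete control).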

[10] = system: galium; assay: Test A postemergence herbicide test; type: in vivo, Galium aparine
Summary of the method: as §2

[11] = system: rice; assay: Test B flooded paddy test; type: in vivo, Oryza sativa; conditions: 500 g ai/ha, Flood; scale of 0 to 100 where 0 is no effect and 100 is complete control
Summary of the method: (§3)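 First, plants reach the 2-leaf stage; next, pots are flooded to 3 cm and compound is delivered into the water; finally, after 13 to 15 greenhouse days at constant depth, injury is graded visually from 0 to 100 against controls.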

[12] = system: sedge, umbrella; assay: Test B flooded paddy test; type: in vivo, Cyperus difformis; conditions: 500 g ai/ha, Flood; scale of 0 to 100 where 0 is no effect and 100 is complete control
Summary of the method: as §3

[13] = system: ducksalad; assay: Test B flooded paddy test; type: in vivo, Heteranthera limosa; conditions: 500 g ai/ha, Flood; scale of 0 to 100 where 0 is no effect and 100 is complete control
Summary of the method: as §3

[14] = system: barnyardgrass; assay: Test B flooded paddy test; type: in vivo, Echinochloa crus-galli; conditions: 500 g ai/ha, Flood; scale of 0 to 100 where 0 is no effect and 100 is complete control
Summary of the method: as §3

[15] = Postemergence, 125 g ai/ha, visual rating on 0 to 100 scale (0 no effect, 100 complete control), approx. 10 days
[16] = Postemergence, 500 g ai/ha, 0 to 100 scale (0 no effect, 100 complete control)
[17] = Preemergence, 125 g ai/ha, 0 to 100 scale where 0 is no effect and 100 is complete control
[18] = Preemergence, 500 g ai/ha, visual rating on 0 to 100 scale (0 no effect, 100 complete control)
[19] = 125 g ai/ha, visual rating on 0 to 100 scale (0 no effect, 100 complete control), approx. 10 days
[20] = 500 g ai/ha, 0 to 100 scale (0 no effect, 100 complete control)
[21] = 125 g ai/ha, visual rating, 0 to 100 scale, 0 no effect, 100 complete control, approximately 10 days, preemergence
[22] = Postemergence, 125 g ai/ha, 0 to 100 scale, 0 is no effect, 100 is complete control
[23] = preemergence, 500 g ai/ha, 0 to 100 scale, 0 is no effect and 100 is complete control
[24] = 125 g ai/ha, 0 to 100 scale, 0 is no effect, 100 is complete control

O=C1NCC(c2cccc(Br)c2)C1C(=O)Nc1ccccc1Cl (stereo not drawn) [Compound 311]
Plant response rating, Barnyardgrass [1, 15]: 60
Plant response rating, Barnyardgrass [1, 16]: 80
Plant response rating, Barnyardgrass [1, 17]: 70
Barnyardgrass plant response rating [1, 18]: 80
Plant response rating, Kochia [2, 15]: 0
Plant response rating, Kochia [2, 16]: 0
Plant response rating, Kochia [2, 17]: 0
Kochia plant response rating [2, 18]: 0
Plant response rating, Ragweed [3, 15]: 0
Plant response rating, Ragweed [3, 16]: 0
Plant response rating, Ragweed [3, 17]: 0
Ragweed plant response rating [3, 18]: 0
Plant response rating, Ryegrass, Italian [4, 15]: 0
Plant response rating, Ryegrass, Italian [4, 16]: 0
Plant response rating, Ryegrass, Italian [4, 17]: 0
Ryegrass, Italian plant response rating [4, 18]: 0
Plant response rating, Foxtail, Giant [5, 15]: 60
Plant response rating, Foxtail, Giant [5, 16]: 70
Plant response rating, Foxtail, Giant [5, 17]: 80
Foxtail, Giant plant response rating [5, 18]: 90
Plant response rating, Pigweed [6, 15]: 0
Plant response rating, Pigweed [6, 16]: 0
Plant response rating, Pigweed [6, 17]: 0
Pigweed plant response rating [6, 18]: 0
Plant response rating, Wheat [7, 19]: 0
Plant response rating, Wheat [7, 20]: 0
Plant response rating, Corn [8, 19]: 0
Plant response rating, Corn [8, 20]: 0
Plant response rating, Blackgrass [9, 19]: 0
Plant response rating, Blackgrass [9, 20]: 30
Plant response rating, Galium [10, 19]: 0
Plant response rating, Galium [10, 20]: 0
Plant response rating, Rice [11]: 0
Plant response rating, Sedge, Umbrella [12]: 0
Plant response rating, Ducksalad [13]: 98
Plant response rating, Barnyardgrass [14]: 50

O=C1NCC(c2cccc3ccccc23)C1C(=O)Nc1ccccc1F (stereo not drawn) [Compound 216]
Plant response rating, Barnyardgrass [1, 21]: 20
Plant response rating, Barnyardgrass [1, 22]: 0
Barnyardgrass plant response rating (0 to 100 scale, 0 is no effect, 100 is complete control) ([1]; Postemergence, 500 g ai/ha): 0
Plant response rating, Barnyardgrass [1, 23]: 60
Plant response rating, Kochia [2, 21]: 0
Plant response rating, Kochia [2, 22]: 0
Kochia plant response rating (0 to 100 scale, 0 is no effect, 100 is complete control) ([2]; Postemergence, 500 g ai/ha): 0
Plant response rating, Kochia [2, 23]: 0
Plant response rating, Ragweed [3, 21]: 0
Plant response rating, Ragweed [3, 22]: 0
Ragweed plant response rating (0 to 100 scale, 0 is no effect, 100 is complete control) ([3]; Postemergence, 500 g ai/ha): 0
Plant response rating, Ragweed [3, 23]: 0
Plant response rating, Ryegrass, Italian [4, 21]: 0
Plant response rating, Ryegrass, Italian [4, 22]: 0
Ryegrass, Italian plant response rating (0 to 100 scale, 0 is no effect, 100 is complete control) ([4]; Postemergence, 500 g ai/ha): 0
Plant response rating, Ryegrass, Italian [4, 23]: 0
Plant response rating, Foxtail, Giant [5, 21]: 40
Plant response rating, Foxtail, Giant [5, 22]: 0
Foxtail, Giant plant response rating (0 to 100 scale, 0 is no effect, 100 is complete control) ([5]; Postemergence, 500 g ai/ha): 10
Plant response rating, Foxtail, Giant [5, 23]: 50
Plant response rating, Pigweed [6, 21]: 0
Plant response rating, Pigweed [6, 22]: 0
Pigweed plant response rating (0 to 100 scale, 0 is no effect, 100 is complete control) ([6]; Postemergence, 500 g ai/ha): 0
Plant response rating, Pigweed [6, 23]: 0
Plant response rating, Wheat [7, 24]: 0
Wheat plant response rating (0 to 100 scale, 0 is no effect, 100 is complete control) ([7]; 500 g ai/ha): 0
Plant response rating, Corn [8, 24]: 0
Corn plant response rating (0 to 100 scale, 0 is no effect, 100 is complete control) ([8]; 500 g ai/ha): 0
Plant response rating, Blackgrass [9, 24]: 0
Blackgrass plant response rating (0 to 100 scale, 0 is no effect, 100 is complete control) ([9]; 500 g ai/ha): 0
Plant response rating, Galium [10, 24]: 0
Galium plant response rating (0 to 100 scale, 0 is no effect, 100 is complete control) ([10]; 500 g ai/ha): 0
Plant response rating, Rice [11]: 0
Plant response rating, Sedge, Umbrella [12]: 0
Plant response rating, Ducksalad [13]: 0
Plant response rating, Barnyardgrass [14]: 0

O=C1NCC(c2ccc(Br)c(Br)c2)C1C(=O)Nc1ccccc1Cl (stereo not drawn) [Compound 343]
Plant response rating, Barnyardgrass [1, 15]: 0
Plant response rating, Barnyardgrass [1, 16]: 30
Plant response rating, Barnyardgrass [1, 17]: 20
Barnyardgrass plant response rating [1, 18]: 80
Plant response rating, Kochia [2, 15]: 0
Plant response rating, Kochia [2, 17]: 0
Kochia plant response rating [2, 18]: 0
Plant response rating, Ragweed [3, 15]: 0
Plant response rating, Ragweed [3, 17]: 0
Ragweed plant response rating [3, 18]: 0
Plant response rating, Ryegrass, Italian [4, 15]: 0
Plant response rating, Ryegrass, Italian [4, 17]: 0
Ryegrass, Italian plant response rating [4, 18]: 0
Plant response rating, Foxtail, Giant [5, 15]: 30
Plant response rating, Foxtail, Giant [5, 16]: 60
Plant response rating, Foxtail, Giant [5, 17]: 60
Foxtail, Giant plant response rating [5, 18]: 80
Plant response rating, Pigweed [6, 15]: 0
Plant response rating, Pigweed [6, 17]: 0
Pigweed plant response rating [6, 18]: 0
Plant response rating, Wheat [7, 19]: 0
Plant response rating, Corn [8, 19]: 0
Plant response rating, Corn [8, 20]: 0
Plant response rating, Blackgrass [9, 19]: 0
Plant response rating, Blackgrass [9, 20]: 0
Plant response rating, Galium [10, 19]: 0
Plant response rating, Rice [11]: 0
Plant response rating, Sedge, Umbrella [12]: 0
Plant response rating, Ducksalad [13]: 0
Plant response rating, Barnyardgrass [14]: 0

O=C1NCC(c2ccc(Cl)o2)C1C(=O)Nc1ccccc1F (stereo not drawn) [Compound 284]
Plant response rating, Barnyardgrass [1, 15]: 0
Plant response rating, Barnyardgrass [1, 16]: 50
Plant response rating, Barnyardgrass [1, 17]: 0
Plant response rating, Barnyardgrass [1, 23]: 60
Plant response rating, Kochia [2, 15]: 0
Plant response rating, Kochia [2, 16]: 0
Plant response rating, Kochia [2, 17]: 0
Plant response rating, Kochia [2, 23]: 30
Plant response rating, Ragweed [3, 15]: 0
Plant response rating, Ragweed [3, 16]: 0
Plant response rating, Ragweed [3, 17]: 0
Plant response rating, Ragweed [3, 23]: 0
Plant response rating, Ryegrass, Italian [4, 15]: 0
Plant response rating, Ryegrass, Italian [4, 16]: 0
Plant response rating, Ryegrass, Italian [4, 17]: 0
Ryegrass, Italian plant response rating [4, 18]: 0
Plant response rating, Foxtail, Giant [5, 15]: 0
Plant response rating, Foxtail, Giant [5, 16]: 10
Plant response rating, Foxtail, Giant [5, 17]: 40
Plant response rating, Foxtail, Giant [5, 23]: 70
Plant response rating, Pigweed [6, 15]: 0
Plant response rating, Pigweed [6, 16]: 0
Plant response rating, Pigweed [6, 17]: 0
Plant response rating, Pigweed [6, 23]: 40
Plant response rating, Wheat [7, 19]: 0
Plant response rating, Wheat [7, 20]: 0
Plant response rating, Corn [8, 19]: 0
Plant response rating, Corn [8, 20]: 0
Plant response rating, Blackgrass [9, 19]: 0
Plant response rating, Blackgrass [9, 20]: 0
Plant response rating, Galium [10, 19]: 0
Plant response rating, Galium [10, 20]: 60
Plant response rating, Rice [11]: 10
Plant response rating, Sedge, Umbrella [12]: 0
Plant response rating, Ducksalad [13]: 80
Plant response rating, Barnyardgrass [14]: 0

CSc1cccc(C2CNC(=O)C2C(=O)Nc2ccccc2Cl)c1 (stereo not drawn) [Compound 291]
Plant response rating, Barnyardgrass [1, 15]: 40
Plant response rating, Barnyardgrass [1, 16]: 60
Plant response rating, Barnyardgrass [1, 17]: 20
Plant response rating, Barnyardgrass [1, 23]: 60
Plant response rating, Kochia [2, 15]: 0
Plant response rating, Kochia [2, 16]: 0
Plant response rating, Kochia [2, 17]: 20
Plant response rating, Kochia [2, 23]: 20
Plant response rating, Ragweed [3, 15]: 0
Plant response rating, Ragweed [3, 16]: 0
Plant response rating, Ragweed [3, 17]: 0
Plant response rating, Ragweed [3, 23]: 0
Plant response rating, Ryegrass, Italian [4, 15]: 0
Plant response rating, Ryegrass, Italian [4, 16]: 0
Plant response rating, Ryegrass, Italian [4, 17]: 0
Ryegrass, Italian plant response rating [4, 18]: 30
Plant response rating, Foxtail, Giant [5, 15]: 20
Plant response rating, Foxtail, Giant [5, 16]: 50
Plant response rating, Foxtail, Giant [5, 17]: 20
Plant response rating, Foxtail, Giant [5, 23]: 80
Plant response rating, Pigweed [6, 15]: 0
Plant response rating, Pigweed [6, 16]: 0
Plant response rating, Pigweed [6, 17]: 0
Plant response rating, Pigweed [6, 23]: 0
Plant response rating, Wheat [7, 19]: 0
Plant response rating, Wheat [7, 20]: 0
Plant response rating, Corn [8, 19]: 0
Plant response rating, Corn [8, 20]: 0
Plant response rating, Blackgrass [9, 19]: 0
Plant response rating, Blackgrass [9, 20]: 0
Plant response rating, Galium [10, 19]: 20
Plant response rating, Galium [10, 20]: 0
Plant response rating, Rice [11]: 20
Plant response rating, Sedge, Umbrella [12]: 0
Plant response rating, Ducksalad [13]: 0
Plant response rating, Barnyardgrass [14]: 0
